Assay results published in US10471044B2, “Post nerve injury rehabilitation effect-enhancing agent comprising alkyl ether derivative or salt thereof” (FUJIFILM Toyama Chemical Co., Ltd., priority 2014, dated 2019).

Columns and labels:
[1] = system: forelimb function lost after freezing damage-induced brain injury; assay: Recovery by training of forelimb function lost after freezing damage-induced brain injury; type: in vivo, C57BL/6J mice; details: mice, oral twice a day 30 mg/kg/time plus training 30 min/day, evaluated 21-49 days after damage, compared to the other groups (control, Compound A without training, training only), FIG. 1
Description: Action of enhancing the recovery effect obtained by training the forelimb function lost after freezing damage-induced brain injury was examined. A test was performed using the following method, by referring to the method described in Journal of Neuroscience Methods, Vol. 193, Issue 1, Pages 82-85 (2010) and Nature, Vol. 462, Issue 7275, Pages 915-919 (2009). Six-week-old male C57BL/6J mice (Charles River Japan) were used in the test. The mice were raised in an environment in which they had free access to feed and water, under a light-dark cycle of 12 hours (light period: 7:00-19:00, dark period: 19:00-7:00). The mice were randomly assigned to the groups. [table] An acrylic rectangular enclosure (length×width×height; 15×8.5×20 cm) in which only the front face of the four faces was transparent, and the other three faces were black was used. A slit measuring 0.5 cm in width×13 cm in height was formed on the right side of the front face when seen from the front. A transparent acrylic plate measuring 8.5 cm in width×1.25 cm in height was used as the feed plate. Diced almonds (K's Factory, Co., Ltd.) were used as the feed for use in the evaluation. […] A case where a mouse was able to extend the left forelimb through the slit, and carry the diced almond into the mouth without dropping it was determined to be successful. […]

[2] = system: forelimb function lost after internal capsule hemorrhage-induced brain injury; assay: Recovery by training of forelimb function lost after internal capsule hemorrhage-induced brain injury (mouse models); type: in vivo, C57BL/6J mice; details: mice, oral once a day 20 mg/kg/time plus training 30 min/day, evaluated 31-63 days after induction, compared to trained control group, FIG. 2
Description: Action of enhancing the recovery effect obtained by training the forelimb function lost after internal capsule hemorrhage-induced brain injury was examined, using internal capsule hemorrhage mouse models. A test was carried out using the following method, by referring to Plos One, Vol. 8, e67691 (2013) and Behav Brain Res., Vol. 20, Issue 225, Pages 126-34 (2011). Six-week-old male C57BL/6J mice (Charles River Japan) were used in the test. The mice were raised in an environment in which they had free access to feed and water, under a light-dark cycle of 12 hours (light period: 7:00-19:00, dark period: 19:00-7:00). The mice were randomly assigned to the groups. [table] An acrylic rectangular enclosure (length×width×height; 15×8.5×20 cm) in which only the front face of the four faces was transparent, and the other three faces were black was used. A slit measuring 0.5 cm in width×13 cm in height was formed on the right side of the front face when seen from the front. A transparent acrylic plate measuring 8.5 cm in width×1.25 cm in height was used as the feed plate. Diced almonds (K's Factory, Co., Ltd.) were used as the feed for use in the evaluation. […] A case where a mouse was able to extend the left forelimb through the slit, and carry the diced almond into the mouth without dropping it was determined to be successful. […]

[3] = system: upper limb function lost after brain injury; assay: Recovery by rehabilitation-like training of upper limb function lost after brain injury (internal capsule hemorrhage cynomolgus monkey models); type: in vivo, cynomolgus monkeys; details: 1 animal
Text: Test Example 3 Action of enhancing the recovery effect obtained with rehabilitation-like training of the upper limb function lost after brain injury was examined, using internal capsule hemorrhage cynomolgus monkey models.
Two male cynomolgus monkeys (Tsukuba Primate Research Center, National Institute of Biomedical Innovation) were used in the test. The cynomolgus monkeys were raised in a breeding cage for old world monkeys (length×width×height; 79×47×80 cm) in which they had free access to feed and water, under a light-dark cycle of 12 hours (light period: 7:00-19:00 dark period: 19:00-7:00).
Motor learning and an upper limb function evaluation were performed by making the cynomolgus monkeys take feed provided in front of the breeding cage. A 3.5- or 7 mm square piece of apple was used as the feed for use in the evaluation.
In order to allow the cynomolgus monkeys to acclimate to the testing apparatus, and determine the dominant hand of each of the individuals, a 7 mm square piece of apple attached to a needle tip was provided in the center of the front face of the cage, and the behavior of the cynomolgus monkey taking the feed was observed. The hand more often used in a total of 150 trials (30 trials a day for 5 days) was determined as its dominant hand. […]

OC1CN(CCCOCCc2ccc3sccc3c2)C1 [Compound A, 1-(3-(2-(1-benzothiophen-5-yl)ethoxy)propyl)azetidin-3-ol]
relative recovery rate (success rate of taking feed with left forelimb) [1]: much higher relative recovery rate within a short period
relative recovery rate (success rate of taking feed with left forelimb) [2]: much higher relative recovery rate
recovery after the brain injury (upper limb function) ([3]; intramuscular once a day 3 mg/kg/time plus rehabilitation-like training, versus trained animal without Compound A (recovery limited)): remarkable tendency to recovery was observed
accurate grasping ([3]; intramuscular once a day 3 mg/kg/time, after the beginning of the rehabilitation-like training, not observed in animal without Compound A): accurate grasping similar to that before the brain injury was observed
